Laboratory results as given in PMC6916168, “Multifunctional Glycoconjugates for Recruiting Natural Antibodies against Cancer Cells” (Chemistry (Weinheim an Der Bergstrasse, Germany), 2019).

Biological target: human anti-Rha IgM
Assay: Competitive ELISA: inhibition of human anti-Rha IgM binding to PAA-Rha coated wells
Conditions: indirect competitive ELISA; human serum 20 %; PAA-Rha coating 5 μg mL^−1; 1 h at 37 °C; Alexa-Fluor488 goat anti-human IgM (1:400), fluorescence Ex 488/Em 530 nm; average of three independent experiments; read-out: IC50, inhibition of binding of human anti-Rha IgM to Rha coated wells (monovalent control)
Method: We next performed enzyme‐linked immunosorbent assay (ELISA)‐type studies to evaluate the ability of glycoconjugates 3 and 6 to bind natural Abs. Microtiter plates were first coated with a commercial Rha‐functionalized poly[N‐(2‐hydroxyethyl)acrylamide] polymer (PAA‐Rha) and incubated with human serum, a source of anti‐Rha antibodies, then fluorescent goat anti‐human IgM and IgG. […] This observation is in good agreement with previous studies showing strong ratio variations of circulating antibodies in human sera.15, 16 A competitive assay was next performed with glycoconjugates 3 and 6 as inhibitors and Rha as the monovalent control (Figure 1). […]
The ability of the ABMs to recruit anti‐Rha antibodies present in human serum (HS) was evaluated by an indirect competitive ELISA binding study. […] The fluorescence has been measured by using an Omega BMG LABTECH plate reader (Ex: 488 nm/ Em: 530 nm). The percentage of binding inhibition of the human anti‐Rha IgM antibody to the rhamnose‐coated microplate was calculated by using the formula: inhibition (%)=((F max−F)/F max)×100. F max corresponds to the mean value of the higher fluorescence limit reached in the dilution series of each rhamnose conjugate whereas F is the fluorescence red for each concentration of the compound tested. The fluorescence values used in this formula were an average of triplicate experiments. […]

`C[C@H](O)[C@H](O)[C@@H](O)[C@@H](O)C=O` [Rha, L‐rhamnose] showed an IC50 of 1200 µM.
